32 molecules from patent publication US20240360103A1, “COMPLEMENT INHIBITION” (Apellis Pharmaceuticals, Inc., priority 2021, published 2024) can be followed below.

SMILES strings stand for the structures.

This test addresses C3 convertase (CVF:Bb) (Homo sapiens, UniProt P00751). The test can be described thus: C3 Convertase Assay (biochemical assay, compound contacted with CVF:Bb, then C3 substrate added). The source says: Various technologies are available for assessing provided compounds, compositions and methods. In some embodiments, a useful assay is an assay described below. […] In some embodiments, a purified, isolated or enriched C3 convertase is utilized. […] In some embodiments, a compound was first contacted with CVF:Bb, followed by addition of C3 substrates. As those skilled in the art will appreciate, products C3a and/or C3b could be detected through a number of technologies (e.g., antibodies specific for a product) and reduction of levels of one or both of them could be utilized to assess inhibition.

Sequence of C3 convertase (CVF:Bb) (P00751 260-764 limits assumed): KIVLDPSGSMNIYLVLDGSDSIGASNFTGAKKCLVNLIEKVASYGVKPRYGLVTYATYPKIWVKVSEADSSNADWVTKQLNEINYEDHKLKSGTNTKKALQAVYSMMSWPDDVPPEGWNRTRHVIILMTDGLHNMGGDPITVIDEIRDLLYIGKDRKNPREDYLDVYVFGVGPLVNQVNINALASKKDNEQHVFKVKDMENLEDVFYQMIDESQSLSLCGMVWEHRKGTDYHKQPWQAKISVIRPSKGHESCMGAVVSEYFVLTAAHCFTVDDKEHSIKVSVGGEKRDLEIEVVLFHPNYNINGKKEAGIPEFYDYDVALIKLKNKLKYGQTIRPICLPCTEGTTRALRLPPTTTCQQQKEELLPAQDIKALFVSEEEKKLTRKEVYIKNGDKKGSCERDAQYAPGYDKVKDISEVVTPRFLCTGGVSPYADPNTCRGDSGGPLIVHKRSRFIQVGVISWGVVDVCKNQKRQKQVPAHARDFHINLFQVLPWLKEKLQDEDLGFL

As to `COc1cc(C)c2[nH]ccc2c1CN1CCN(C2CCC2)CC1c1ccc(C(=O)O)cc1` (centres unmarked), 2.58 µM corresponded to half-maximal inhibition (IC50).

For the molecule `Cc1cc(C2CC2)c(CN2CCN(CC(F)F)C[C@@H]2c2ccc(C(=O)O)cc2)c2cc[nH]c12`, it took 0.163 µM to reach half-maximal inhibition (IC50).

`CN1CCN(Cc2cccc3[nH]ccc23)C(c2ccc(C(=O)O)cc2)C1` (centres unmarked): the IC50 is above 10 µM.

As to `COc1cc(C)c2[nH]ccc2c1CN1CCN(Cc2ncco2)C[C@H]1c1ccc(C(=O)O)cc1`, half-maximal inhibition (IC50) was put at 9.11 µM.

The molecule `COc1cc(C)c2[nH]ccc2c1CN1CCN(CCF)C[C@@H]1c1ccc(C(=O)O)cc1` displayed a 50% inhibitory concentration (IC50) of 0.042 µM. This IC50 lies about 220-fold lower than the previous one.

`COc1cc(C)c2[nH]ccc2c1CN1CCN(Cc2ncco2)C[C@@H]1c1ccc(C(=O)O)cc1` returned an IC50 above 10 µM.

Regarding `COc1cc(C)c2[nH]ccc2c1CN1CCN(Cc2ccccc2)CC1c1ccc(C(=O)O)cc1` (centres unmarked), the 50% inhibitory concentration (IC50) came out at 5.24 µM.

Molecule `COc1cc(C)c2[nH]ccc2c1CN1CCN(CCO)CC1c1ccc(C(=O)O)cc1` (centres unmarked) returned an IC50 of 0.119 µM.

For the molecule `COc1cc(C)c2[nH]ccc2c1CN1CCN(C2CC2)C[C@@H]1c1ccc(C(=O)O)cc1` (single isomer, unassigned), the IC50 is 4.38 µM. This IC50 lies about 37-fold higher than the previous one.

The molecule `COc1cc(C)c2[nH]ccc2c1CN1CCN(CC(F)F)C[C@H]1c1ccc(C(=O)NS(=O)(=O)C2CC2)cc1` yielded an IC50 of 0.52 µM.

Molecule `COc1cc(C)c2[nH]ccc2c1CN1CCN(C2CCCC2)CC1c1ccc(C(=O)O)cc1` (centres unmarked) registered a concentration for half-maximal inhibition (IC50) of 3.88 µM.

On to `COc1cc(C)c2[nH]ccc2c1CN1CCN(C(C)=O)CC1c1ccc(C(=O)O)cc1` (centres unmarked), for which the IC50 is above 10 µM.

For `COc1cc(C)c2[nH]ccc2c1CN1CCN(S(C)(=O)=O)CC1c1ccc(C(=O)O)cc1` (centres unmarked), the IC50 is 9.33 µM.

`Cc1ccc(CN2CCN(C)CC2c2ccc(C(=O)O)cc2)c2cc[nH]c12` (centres unmarked) had an IC50 of 0.479 µM.

`COc1cc(C)c2[nH]ccc2c1CN1CCN(c2nccs2)C[C@H]1c1ccc(C(=O)O)cc1` returned an IC50 above 10 µM.

`C#CCN1CCN(Cc2c(OC)cc(C)c3[nH]ccc23)C(c2ccc(C(=O)O)cc2)C1` (centres unmarked) displayed an IC50 of 1.07 µM.

For `COc1cc(C)c2[nH]ccc2c1CN1CCNCC1c1ccc(C(=O)O)cc1` (centres unmarked), the 50% inhibitory concentration (IC50) was above 10 µM.

Take `CCC(C)CN1CCN(Cc2c(OC)cc(C)c3[nH]ccc23)C(c2ccc(C(=O)O)cc2)C1` (centres unmarked): the IC50 turned out to be 6.59 µM. That is a single-digit micromolar value.

`COc1cc(C)c2[nH]ccc2c1CN1CCN(c2ccccc2)CC1c1ccc(C(=O)O)cc1` (centres unmarked) came in with a 50% inhibitory concentration (IC50) above 10 µM.

`COc1cc(C)c2[nH]ccc2c1CN1CCN(CC(F)F)C[C@@H]1c1ccc(C(=O)O)cc1`: the 50% inhibitory concentration (IC50) was determined as 0.08 µM.

In turn, `COCCN1CCN(Cc2c(OC)cc(C)c3[nH]ccc23)C(c2ccc(C(=O)O)cc2)C1` (centres unmarked) gave an IC50 of 0.221 µM.

`COc1cc(C)c2[nH]ccc2c1CN1CCN(C(C)C)CC1c1ccc(C(=O)O)cc1` (centres unmarked) had a half-maximal inhibitory concentration (IC50) of 0.652 µM.

In turn, `COc1cc(Cl)c2[nH]ccc2c1CN1CCN(CC(F)(F)F)CC1c1ccc(C(=O)O)cc1` (centres unmarked) gave a half-inhibitory concentration (IC50) of 2.7 µM.

The molecule `Cc1cc(C2CC2)c(CN2CCN(CC(F)(F)F)C[C@H]2c2ccc(C(=O)O)cc2)c2cc[nH]c12` showed an IC50 of 0.348 µM. Compared with the last molecule, the IC50 is about 7.8-fold lower.

In the case of `COc1cc(Cl)c2[nH]ccc2c1CN1CCN(CC(F)F)C[C@H]1c1ccc(C(=O)O)cc1` [drawing 436], half-maximal inhibition (IC50) was put at 1.49 µM.

The molecule `CCCCN1CCN(Cc2c(OC)cc(C)c3[nH]ccc23)C(c2ccc(C(=O)O)cc2)C1` (centres unmarked) displayed a 50% inhibitory concentration (IC50) of 0.98 µM.

`COc1cc(C)c2[nH]ccc2c1CN1CCN(C2CC2)C[C@H]1c1ccc(C(=O)O)cc1` (single isomer, unassigned) yielded an IC50 of 0.096 µM. Compared with the last molecule, the IC50 is about 10-fold lower.

`COc1cc(C)c2[nH]ccc2c1CN1CCN(CCC(C)C)CC1c1ccc(C(=O)O)cc1` (centres unmarked) came in with an IC50 of 3.2 µM.

Take `COc1cc(C)c2[nH]ccc2c1CN1CCN(CC(F)F)C[C@H]1c1ccc(C(=O)O)cc1`: half-maximal inhibition (IC50) was put at 0.028 µM. This IC50 is about 110-fold lower than that of the molecule before.

The molecule `COc1cc(Cl)c2[nH]ccc2c1CN1CCN(CC(F)(F)F)C[C@H]1c1ccc(C(=O)O)cc1` gave an IC50 of 2.35 µM.

As to `COc1cc(C)c2[nH]ccc2c1CN1CCN(c2cccnn2)C[C@H]1c1ccc(C(=O)O)cc1`, the IC50 is above 10 µM.

Turning to `COc1cc(C)c2[nH]ccc2c1CN1CCN(CCCF)C[C@H]1c1ccc(C(=O)O)cc1`, the 50% inhibitory concentration (IC50) worked out at 0.099 µM. In other words, the double-digit nanomolar range.

In general, IC50 refers to the midpoint of a concentration-inhibition curve. The low end stands for higher potency, the high end for lower potency.
